Patent US20240132431A1, “METHOD FOR ALKYLATING ACIDIC FUNCTIONAL GROUP” (Chugai Seiyaku Kabushiki Kaisha, priority 2021, published 2024)

Molecular target: T1, Bcl-2 protein (Recombinant Human Bcl-2 Protein) (Homo sapiens, UniProt P10415)
T1 construct: purchased Novus NBP2-34889
Test: Binding evaluation of mixture library compounds to Bcl-2 using AS-MS (affinity selection mass spectrometry)
Conditions: AS-MS, mixture library, Bcl-2, ASMS Ratio(%)=(A−C)/B×100; for ASMS ratio (%) n = 1: replicate n = 1; for ASMS ratio (%) n = 2: replicate n = 2
Summary of the method: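 ASMS Ratio (%) was calculated as (A−C)/B×100, where A is the protein sample after SEC, B the protein-free sample without SEC and C the protein-free sample after SEC. Each compound was at […] in a 1200-member pool with 20 μM Bcl-2, incubated 1 h at 23° C.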

T1 sequence (P10415 whole entry): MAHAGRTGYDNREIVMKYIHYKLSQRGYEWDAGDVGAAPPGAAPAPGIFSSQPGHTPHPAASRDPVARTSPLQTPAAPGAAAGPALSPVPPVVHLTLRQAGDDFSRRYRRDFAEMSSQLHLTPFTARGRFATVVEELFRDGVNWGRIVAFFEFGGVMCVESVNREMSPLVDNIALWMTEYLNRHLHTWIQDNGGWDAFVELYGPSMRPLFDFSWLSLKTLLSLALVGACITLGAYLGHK

## CCOc1cccc(-c2ccccc2CN2CCN(c3ccc(C(=O)NS(=O)(=O)CC45CC6CC(CC(C6)C4)C5)nn3)CC2)c1 [B2A071-01, N-(1-Adamantylmethylsulfonyl)-6-[4-[[2-(3-ethoxyphenyl)phenyl]methyl]piperazin-1-yl]pyridazine-3-carboxamide]
  ASMS ratio (%) n = 1: 16.1%
  ASMS ratio (%) n = 2: 5.6%

## CCOc1cncc(-c2ccccc2CN2CCN(c3ccc(C(=O)NS(=O)(=O)CC45CC6CC(CC(C6)C4)C5)nn3)CC2)c1 [B2A072-01]
  ASMS ratio (%) n = 1: 12.2%
  ASMS ratio (%) n = 2: 14.7%

## CCOc1cccc(-c2ccc(CN3CCN(c4ccc(C(=O)NS(=O)(=O)CC56CC7CC(CC(C7)C5)C6)nn4)CC3)cc2C)c1 [B2A073-01, N-(1-Adamantylmethylsulfonyl)-6-[4-[[4-(3-ethoxyphenyl)-3-methylphenyl]methyl]piperazin-1-yl]pyridazine-3-carboxamide]
  ASMS ratio (%) n = 1: 16.2%
  ASMS ratio (%) n = 2: 13.5%

## CCOc1cncc(-c2ccc(CN3CCN(c4ccc(C(=O)NS(=O)(=O)CC56CC7CC(CC(C7)C5)C6)nn4)CC3)cc2C)c1 [B2A074-01, N-(1-Adamantylmethylsulfonyl)-6-[4-[[4-(5-ethoxypyridin-3-yl)-3-methylphenyl]methyl]piperazin-1-yl]pyridazine-3-carboxamide]
  ASMS ratio (%) n = 1: 9.2%
  ASMS ratio (%) n = 2: 1.9%

## CCOc1cccc(-c2ccc(CN3CCN(c4ccc(C(=O)NS(=O)(=O)CC56CC7CC(CC(C7)C5)C6)nn4)CC3)c(CC)c2)c1 [B2A075-01, N-(1-Adamantylmethylsulfonyl)-6-[4-[[4-(3-ethoxyphenyl)-2-ethylphenyl]methyl]piperazin-1-yl]pyridazine-3-carboxamide]
  ASMS ratio (%) n = 1: 4.6%
  ASMS ratio (%) n = 2: 4.4%

## CCOc1cncc(-c2ccc(CN3CCN(c4ccc(C(=O)NS(=O)(=O)CC56CC7CC(CC(C7)C5)C6)nn4)CC3)c(CC)c2)c1 [B2A076-01, N-(1-Adamantylmethylsulfonyl)-6-[4-[[4-(5-ethoxypyridin-3-yl)-2-ethylphenyl]methyl]piperazin-1-yl]pyridazine-3-carboxamide]
  ASMS ratio (%) n = 1: 23.4%
  ASMS ratio (%) n = 2: 11.4%

## CCOc1cccc(-c2ccc(CN3CCN(c4ccc(C(=O)NS(=O)(=O)CC56CC7CC(CC(C7)C5)C6)nn4)CC3)cc2F)c1 [B2A077-01, N-(1-Adamantylmethylsulfonyl)-6-[4-[[4-(3-ethoxyphenyl)-3-fluorophenyl]methyl]piperazin-1-yl]pyridazine-3-carboxamide]
  ASMS ratio (%) n = 1: 14.3%
  ASMS ratio (%) n = 2: 21.9%

## CCOc1cncc(-c2ccc(CN3CCN(c4ccc(C(=O)NS(=O)(=O)CC56CC7CC(CC(C7)C5)C6)nn4)CC3)cc2F)c1 [B2A078-01, N-(1-Adamantylmethylsulfonyl)-6-[4-[[4-(5-ethoxypyridin-3-yl)-3-fluorophenyl]methyl]piperazin-1-yl]pyridazine-3-carboxamide]
  ASMS ratio (%) n = 1: 15.2%
  ASMS ratio (%) n = 2: 9.3%

## CCOc1cncc(-c2ccc(CN3CCN(c4ccc(C(=O)NS(=O)(=O)CC56CC7CC(CC(C7)C5)C6)nn4)CC3)c(OC)c2)c1 [B2A080-01, N-(1-Adamantylmethylsulfonyl)-6-[4-[[4-(5-ethoxypyridin-3-yl)-2-methoxyphenyl]methyl]piperazin-1-yl]pyridazine-3-carboxamide]
  ASMS ratio (%) n = 1: 0.0%
  ASMS ratio (%) n = 2: 0.0%

## CCOc1cccc(-c2cc(CN3CCN(c4ccc(C(=O)NS(=O)(=O)CC56CC7CC(CC(C7)C5)C6)nn4)CC3)cc(OCC)c2)c1 [B2A081-01, N-(1-Adamantylmethylsulfonyl)-6-[4-[[3-ethoxy-5-(3-ethoxyphenyl)phenyl]methyl]piperazin-1-yl]pyridazine-3-carboxamide]
  ASMS ratio (%) n = 1: 18.6%
  ASMS ratio (%) n = 2: 16.7%
